Assay: Solubility in water of the surfactant
Format: physicochemical
Conditions: water at 25° C.
Protocol: As long as the above-described surfactant adhered to a base membrane includes at least a surfactant (A) soluble in water and a surfactant (B) insoluble in water, the above-described surfactant adhered to a base membrane may also include another surfactant (i.e., a surfactant having a solubility in water of 0.1 g based on 100 g of water to 5 g based on 100 g of water.)
(7) Solubility in Water (g Per 100 g of Water)
Aliquots, each of which is 0.01 g of a surfactant, were added one by one to 100 g of water at 25° C. while stirring. The total amount of the surfactant added (g) when the solution changed from clear to opaque was taken as the degree of the solubility in water

Row | Solubility in water | Molecule
1 | ≤ 0.1 g per 100 g of water | CCCCCCCC/C=C/CCCCCCCC1=NCCN1CCO [oleyl imidazoline]
2 | ≥ 5 g per 100 g of water | polyoxyethylene alkyl ether
